These are literature values, as cited in paper PMC7933701 (Biochemistry and Biophysics Reports, 2021).

This data set deals with PSA. As to conditions: peptide carrier of doxorubicin prodrug.

For the substance Mu-His-Ser-Ser-Lys-Leu-Gln-Leu, the “hydrolysis by PSA (in words)” value is on record as “precisely hydrolysable by PSA”.
